According to patent US9335538B2, “Electrowetting display device and dye composition for electrowetting display” (FUJIFILM CORPORATION, priority 2012, dated 2016):

How the values were obtained:
Type in all cases: physicochemical
[1] = Hue of colored solution, visual observation; details: 0.01% by mass normal decane solution, visually observed
Experimental: (§1) A methine dye (the above-described exemplary compounds 5, 15, and 23 shown in Table 1 below were prepared) and normal decane (n-decane) which is an organic solvent were mixed. In this way, three kinds of 0.01% by mass normal decane solutions (colored compositions) each colored with a methine dye were prepared.
(§2) With regard to each of the colored solutions thus prepared, the hue, absorption maximum wavelength (λmax), absorbance (abs), and absorption coefficient (∈) were measured and evaluated according to the methods described below. Further, with regard to each of the dyes described below, the solubility (% by mass) with respect to normal hexane (n-hexane) was measured and evaluated according to the method described below.
(1) Hue Each of the colored solutions (colored compositions) was visually observed, and the hue thereof was judged.

[2] = Solubility with respect to hexane
Experimental: (3) Solubility with Respect to Hexane
The solubility of each methine dye with respect to normal hexane (n-hexane) which is a nonpolar solvent was measured in a manner as described below.
The dye was dissolved in normal hexane heated to 50° C. to prepare a saturated solution. Thereafter, the saturated solution thus obtained was left for one hour under an environment of 25° C. and 0.1 MPa.

[3] = Absorption maximum wavelength, absorbance and absorption coefficient of colored solution (visible absorptiometer); details: 0.01% by mass normal decane solution
Experimental: as §1, §2
(2) Absorption Maximum Wavelength, Absorbance, and Absorption Coefficient
With regard to the colored solutions (colored compositions), the absorption maximum wavelength (λmax) and the absorbance were measured using a visible absorptiometer (trade name: UV-1800PC, manufactured by Shimadzu Corp.), and the absorption coefficient (∈) was calculated based on the Lambert-Beer law.

Color of solution [1]: yellow
solubility with respect to hexane (in words) ([2]; hexane, a hydrocarbon solvent): high solubility
Solubility in hexane (%) ([2]; n-hexane, 25° C. and 0.1 MPa, % by mass): 40 or more %
Absorbance (abs) [3]: 0.525
Absorption maximum wavelength (λmax) [3]: 441 nm
Absorption coefficient (ε) ([3]; calculated based on the Lambert-Beer law): 3.20 × 10^4
Compound: CCCCCCC(Oc1ccc(C(C)(C)CC)cc1C(C)(C)CC)C(=O)NCC(C)c1nc2/c(=C\c3c(C)nn4nc(C(C)CNC(=O)C(CCCCCC)Oc5ccc(C(C)(C)CC)cc5C(C)(C)CC)[nH]c34)c(C)nn2n1 (stereo not drawn) [Exemplary compound 5]
